Test results from publication PMC6003702 (Biopolymers, 2017).
Like-named read-outs stand apart in the source and are kept apart here. Where a SMILES comes first, the peptide text is derived from it.

What was measured:
cloned rat KOR = cloned rat KOR (Rattus norvegicus, UniProt P34975); assay: Radioligand binding assay, KOR; details: SEM
cloned rat MOR = cloned rat MOR (Rattus norvegicus, UniProt P33535); assay: Radioligand binding assay, MOR; details: SEM
mouse DOR = mouse DOR (Mus musculus, UniProt P32300); assay: Radioligand binding assay, DOR
Chain of mouse DOR (P32300 whole entry): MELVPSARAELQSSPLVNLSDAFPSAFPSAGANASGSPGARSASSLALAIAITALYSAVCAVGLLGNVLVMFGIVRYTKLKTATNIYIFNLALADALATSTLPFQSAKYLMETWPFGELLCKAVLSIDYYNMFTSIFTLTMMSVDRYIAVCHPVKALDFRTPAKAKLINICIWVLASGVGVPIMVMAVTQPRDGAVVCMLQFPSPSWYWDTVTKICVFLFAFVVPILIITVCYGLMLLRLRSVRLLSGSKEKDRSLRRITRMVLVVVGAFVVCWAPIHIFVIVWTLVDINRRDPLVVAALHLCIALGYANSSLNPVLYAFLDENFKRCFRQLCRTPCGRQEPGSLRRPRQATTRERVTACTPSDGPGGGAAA

cloned KOR = cloned KOR (Rattus norvegicus, UniProt P34975); assay: [35S]GTPγS assay at KOR; type: biochemical; details: SEM
Chain of cloned KOR (P34975 whole entry): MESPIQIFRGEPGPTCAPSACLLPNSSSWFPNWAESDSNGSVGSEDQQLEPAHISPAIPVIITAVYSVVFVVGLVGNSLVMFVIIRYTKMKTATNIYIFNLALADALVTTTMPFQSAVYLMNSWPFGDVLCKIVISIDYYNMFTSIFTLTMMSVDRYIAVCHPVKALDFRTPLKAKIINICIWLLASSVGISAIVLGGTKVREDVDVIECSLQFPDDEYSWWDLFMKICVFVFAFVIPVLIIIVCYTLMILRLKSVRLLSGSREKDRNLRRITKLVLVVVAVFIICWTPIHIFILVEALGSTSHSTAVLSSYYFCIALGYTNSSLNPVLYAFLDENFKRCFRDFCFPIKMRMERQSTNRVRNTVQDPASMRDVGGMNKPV

Chain of cloned rat MOR (P33535 whole entry): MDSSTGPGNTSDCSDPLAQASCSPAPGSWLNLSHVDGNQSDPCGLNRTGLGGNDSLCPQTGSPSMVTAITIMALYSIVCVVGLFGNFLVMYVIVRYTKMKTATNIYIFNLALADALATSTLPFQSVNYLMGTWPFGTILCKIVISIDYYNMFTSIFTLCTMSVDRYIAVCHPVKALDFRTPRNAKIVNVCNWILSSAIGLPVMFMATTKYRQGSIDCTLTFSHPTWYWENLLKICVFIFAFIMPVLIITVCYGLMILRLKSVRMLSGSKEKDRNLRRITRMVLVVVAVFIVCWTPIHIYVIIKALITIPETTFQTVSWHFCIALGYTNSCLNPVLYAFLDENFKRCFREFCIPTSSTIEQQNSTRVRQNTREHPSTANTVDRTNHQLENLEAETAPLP
Chain of cloned rat KOR (P34975 whole entry): as the sequence (P34975 whole entry) above

Compound	Ki (cloned rat KOR)	Ki (cloned rat MOR)	Ki (mouse DOR)	EC50 (cloned KOR)	Ki (mouse DOR; SEM)
CC(C)C[C@H](NC(=O)[C@H](Cc1ccccc1)NC(=O)CNC(=O)CNC(=O)[C@H](C)N)C(=O)N[C@@H](CCCNC(=N)N)C(=O)N[C@@H](CCCNC(=N)N)C(=O)N[C@@H](CCC(N)=O)C(=O)N[C@@H](Cc1ccccc1)C(=O)N[C@@H](CCCCN)C(=O)N[C@H](C(=O)N[C@H](C(=O)N[C@H](C(N)=O)[C@@H](C)O)C(C)C)C(C)C [Compound 1] (H-AGGFLRRQFKVVT-NH2)	886 ± 123 nM	651 ± 70 nM	> 10000 nM	2650 ± 890 nM	
CC(C)C[C@H](NC(=O)[C@H](C)NC(=O)CNC(=O)CNC(=O)[C@@H](N)Cc1ccc(O)cc1)C(=O)N[C@@H](CCCNC(=N)N)C(=O)N[C@@H](CCCNC(=N)N)C(=O)N[C@@H](CCC(N)=O)C(=O)N[C@@H](Cc1ccccc1)C(=O)N[C@@H](CCCCN)C(=O)N[C@H](C(=O)N[C@H](C(=O)N[C@H](C(N)=O)[C@@H](C)O)C(C)C)C(C)C [Compound 2] (H-YGGALRRQFKVVT-NH2)	1510 ± 221 nM	1040 ± 100 nM	> 10000 nM	1180 ± 330 nM	
CC(C)[C@H](NC(=O)[C@H](CCCCN)NC(=O)[C@H](Cc1ccccc1)NC(=O)[C@H](CCC(N)=O)NC(=O)[C@H](CCCNC(=N)N)NC(=O)[C@H](CCCNC(=N)N)NC(=O)[C@H](C)NC(=O)[C@H](Cc1ccccc1)NC(=O)CNC(=O)CNC(=O)[C@@H](N)Cc1ccc(O)cc1)C(=O)N[C@H](C(=O)N[C@H](C(N)=O)[C@@H](C)O)C(C)C [Compound 3] (H-YGGFARRQFKVVT-NH2)	12.1 ± 5.2 nM	20.3 ± 3.1 nM		109 ± 34 nM	265 ± 43 nM
CC(C)C[C@H](NC(=O)[C@H](Cc1ccccc1)NC(=O)CNC(=O)CNC(=O)[C@@H](N)Cc1ccc(O)cc1)C(=O)N[C@@H](C)C(=O)N[C@@H](CCCNC(=N)N)C(=O)N[C@@H](CCC(N)=O)C(=O)N[C@@H](Cc1ccccc1)C(=O)N[C@@H](CCCCN)C(=O)N[C@H](C(=O)N[C@H](C(=O)N[C@H](C(N)=O)[C@@H](C)O)C(C)C)C(C)C [Compound 4] (H-YGGFLARQFKVVT-NH2)	43.1 ± 2.8 nM	14.1 ± 3 nM		116 ± 21 nM	25.7 ± 1.6 nM
CC(C)C[C@H](NC(=O)[C@H](Cc1ccccc1)NC(=O)CNC(=O)CNC(=O)[C@@H](N)Cc1ccc(O)cc1)C(=O)N[C@@H](CCCNC(=N)N)C(=O)N[C@@H](C)C(=O)N[C@@H](CCC(N)=O)C(=O)N[C@@H](Cc1ccccc1)C(=O)N[C@@H](CCCCN)C(=O)N[C@H](C(=O)N[C@H](C(=O)N[C@H](C(N)=O)[C@@H](C)O)C(C)C)C(C)C [Compound 5] (H-YGGFLRAQFKVVT-NH2)	82.4 ± 9.3 nM	16.7 ± 5.1 nM		802 ± 290 nM	67.5 ± 8.3 nM
CC(C)C[C@H](NC(=O)[C@H](Cc1ccccc1)NC(=O)CNC(=O)CNC(=O)[C@@H](N)Cc1ccc(O)cc1)C(=O)N[C@@H](CCCNC(=N)N)C(=O)N[C@@H](CCCNC(=N)N)C(=O)N[C@@H](C)C(=O)N[C@@H](Cc1ccccc1)C(=O)N[C@@H](CCCCN)C(=O)N[C@H](C(=O)N[C@H](C(=O)N[C@H](C(N)=O)[C@@H](C)O)C(C)C)C(C)C [Compound 6] (H-YGGFLRRAFKVVT-NH2)	13 ± 0.96 nM	4.32 ± 0.1 nM		20.2 ± 10.8 nM	54 ± 6.9 nM
CC(C)C[C@H](NC(=O)[C@H](Cc1ccccc1)NC(=O)CNC(=O)CNC(=O)[C@@H](N)Cc1ccc(O)cc1)C(=O)N[C@@H](CCCNC(=N)N)C(=O)N[C@@H](CCCNC(=N)N)C(=O)N[C@@H](CCC(N)=O)C(=O)N[C@@H](C)C(=O)N[C@@H](CCCCN)C(=O)N[C@H](C(=O)N[C@H](C(=O)N[C@H](C(N)=O)[C@@H](C)O)C(C)C)C(C)C [Compound 7] (H-YGGFLRRQAKVVT-NH2)	11.3 ± 1.7 nM	3.76 ± 0.22 nM		14.8 ± 2.6 nM	42.1 ± 2.5 nM
CC(C)C[C@H](NC(=O)[C@H](Cc1ccccc1)NC(=O)CNC(=O)CNC(=O)[C@@H](N)Cc1ccc(O)cc1)C(=O)N[C@@H](CCCNC(=N)N)C(=O)N[C@@H](CCCNC(=N)N)C(=O)N[C@@H](CCC(N)=O)C(=O)N[C@@H](Cc1ccccc1)C(=O)N[C@@H](C)C(=O)N[C@H](C(=O)N[C@H](C(=O)N[C@H](C(N)=O)[C@@H](C)O)C(C)C)C(C)C [Compound 8] (H-YGGFLRRQFAVVT-NH2)	31.6 ± 6 nM	40.5 ± 3.9 nM		6.36 ± 1.7 nM	119 ± 16 nM
CC(C)C[C@H](NC(=O)[C@H](Cc1ccccc1)NC(=O)CNC(=O)CNC(=O)[C@@H](N)Cc1ccc(O)cc1)C(=O)N[C@@H](CCCNC(=N)N)C(=O)N[C@@H](CCCNC(=N)N)C(=O)N[C@@H](CCC(N)=O)C(=O)N[C@@H](Cc1ccccc1)C(=O)N[C@@H](CCCCN)C(=O)N[C@@H](C)C(=O)N[C@H](C(=O)N[C@H](C(N)=O)[C@@H](C)O)C(C)C [Compound 9] (H-YGGFLRRQFKAVT-NH2)	12.4 ± 1.6 nM	7.45 ± 2.69 nM		8.79 ± 2.2 nM	58.8 ± 3.4 nM
CC(C)C[C@H](NC(=O)[C@H](Cc1ccccc1)NC(=O)CNC(=O)CNC(=O)[C@@H](N)Cc1ccc(O)cc1)C(=O)N[C@@H](CCCNC(=N)N)C(=O)N[C@@H](CCCNC(=N)N)C(=O)N[C@@H](CCC(N)=O)C(=O)N[C@@H](Cc1ccccc1)C(=O)N[C@@H](CCCCN)C(=O)N[C@H](C(=O)N[C@H](C(=O)N[C@H](C(N)=O)[C@@H](C)O)C(C)C)C(C)C [Dyn B amide, reference compound]	6.3 ± 1.68 nM	8.05 ± 2.87 nM		9.14 ± 1.96 nM	43.2 ± 1.6 nM
